Laboratory results: ChEMBL document CHEMBL1132753, “Structure-activity relationship study of asiatic acid derivatives against beta amyloid (A beta)-induced neurotoxicity” (2000)

system: B103 cell line; test: In vitro percent protective effect against Amyloid Beta(A beta)-induced neurotoxicity in B103 cells; format: functional, Rattus norvegicus; parameters: concentration or dose not given beside the values

Going from `C[C@@H]1CC[C@]2(C(=O)O)CC[C@]3(C)C(=CCC4[C@@]5(C)CCCC(C)(C)C5CC[C@]43C)C2[C@H]1C` (stereo partly specified) to `C[C@H]1[C@H](C)CC[C@]2(C(=O)O)CC[C@]3(C)C(=CC[C@@H]4[C@@]5(C)CC[C@H](O)[C@@](C)(CO)[C@@H]5CC[C@]43C)[C@H]12`, the Protection rises from 40% to 87%.

First: CCCCCCCCOCOC(=O)[C@]12CC[C@@H](C)[C@H](C)C1C1=CCC3[C@@]4(C)CC(O)[C@H](O)[C@@](C)(CO)C4CC[C@@]3(C)[C@]1(C)CC2 (stereo partly specified)
Second: COC(=O)[C@]12CC[C@@H](C)[C@H](C)C1C1=CCC3[C@@]4(C)C[C@@H](O)[C@H](O)[C@@](C)(CO)C4CC[C@@]3(C)[C@]1(C)CC2 (stereo partly specified)
The Protection of the first is lower: 22% for the first, 58% for the second.

Going from `C[C@H]1[C@H](C)CC[C@]2(C(=O)O[C@@H]3O[C@H](CO[C@@H]4O[C@H](CO)[C@@H](O[C@@H]5O[C@H](C)[C@H](O)[C@@H](O)[C@H]5O)[C@H](O)[C@H]4O)[C@@H](O)[C@H](O)[C@H]3O)CC[C@]3(C)C(=CC[C@@H]4[C@@]5(C)C[C@@H](O)[C@H](O)[C@@](C)(CO)[C@@H]5CC[C@]43C)[C@H]12` [ASIATICOSIDE] to `C[C@@H]1CC[C@]2(C(=O)OC3CCCCO3)CC[C@]3(C)C(=CCC4[C@@]5(C)C[C@@H](O)[C@H](O)[C@@](C)(CO)C5CC[C@]43C)C2[C@H]1C` (stereo partly specified), the Protection rises from 24% to 92%.

First: C[C@H]1[C@H](C)CC[C@]2(C(=O)O)CC[C@]3(C)C(=CC[C@@H]4[C@@]5(C)C[C@@H](O)[C@H](O)[C@@](C)(CO)[C@@H]5CC[C@]43C)[C@H]12 [ASIATIC ACID]
Second: CC(=O)O[C@@H]1C[C@@]2(C)C(CC[C@]3(C)C2CC=C2C4[C@@H](C)[C@H](C)CC[C@]4(C(=O)O)CC[C@]23C)[C@](C)(CO)[C@H]1O (stereo partly specified)
The Protection of the first is higher: 97% for the first, 22% for the second.

Compared with `C[C@H]1[C@H](C)CC[C@]2(C(=O)O)CC[C@]3(C)C(=CC[C@@H]4[C@@]5(C)C[C@@H](O)[C@H](O)[C@@](C)(CO)[C@@H]5[C@H](O)C[C@]43C)[C@H]12` [MADECASSIC ACID], `C[C@@H]1CC[C@]2(C(=O)O)CC[C@]3(C)C(=CCC4[C@@]5(C)CC(=O)[C@H](O)[C@@](C)(CO)C5CC[C@]43C)C2[C@H]1C` (stereo partly specified) is lower in Protection: 56% for the first, 50% for the second.

`C[C@@H]1CC[C@]2(C(=O)O)CC[C@]3(C)C(=CCC4[C@@]5(C)C[C@@H](O)[C@@H]6OC(C)(C)OC[C@@]6(C)C5CC[C@]43C)C2[C@H]1C` (stereo partly specified) was tested, and the Protection was 66%.
